Experimental data from US11247990B1, “Bicyclic fused pyridine compounds as inhibitors of TAM kinases” (ARRAY BIOPHARMA INC., priority 2017, dated 2022).

The molecules below were run against His-tagged recombinant human MER cytoplasmic domain (Homo sapiens (Human), UniProt Q12866) (assay: MER Enzyme Assay (LanthaScreen Eu Kinase Binding, TR-FRET)). Settings: averaged IC50.
Method: Compounds of Formula I were screened for their ability to inhibit MER kinase using Invitrogen's LanthaScreen™ Eu Kinase Binding technology. […] After a 60-minute incubation at 22° C., the reaction was measured using a PerkinElmer EnVision multimode plate reader via TR-FRET dual wavelength detection, and the percent of control (POC) was calculated using a ratiometric emission factor. […] The POC values are fit to a 4 parameter logistic curve and the IC50 value is point where the curve crosses 50 POC.

Chain of His-tagged recombinant human MER cytoplasmic domain (Q12866 527-999): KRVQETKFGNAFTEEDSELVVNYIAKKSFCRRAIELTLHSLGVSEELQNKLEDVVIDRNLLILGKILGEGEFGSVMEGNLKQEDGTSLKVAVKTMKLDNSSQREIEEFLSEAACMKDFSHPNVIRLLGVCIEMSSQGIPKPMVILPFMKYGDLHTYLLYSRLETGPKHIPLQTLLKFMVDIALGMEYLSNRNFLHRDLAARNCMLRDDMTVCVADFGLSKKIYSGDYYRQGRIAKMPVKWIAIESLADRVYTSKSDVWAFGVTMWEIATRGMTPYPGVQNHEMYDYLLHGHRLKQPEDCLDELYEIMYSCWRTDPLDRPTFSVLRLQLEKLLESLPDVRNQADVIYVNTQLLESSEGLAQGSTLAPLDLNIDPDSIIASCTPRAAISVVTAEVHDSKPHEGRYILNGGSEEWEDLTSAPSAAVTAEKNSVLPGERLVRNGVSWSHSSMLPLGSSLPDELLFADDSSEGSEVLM

IC50, < 0.01 µM:
CNc1cc2c(cn1)c(-c1cnn(C)c1)nn2[C@H]1CC[C@@H](Oc2ccc(=O)[nH]c2)CC1 [Example 25, 5-(((1s,4s)-4-(3-(1-methyl-1H-pyrazol-4-yl)-6-(methylamino)-1H-pyrazolo[4,3-c]pyridin-1-yl)cyclohexyl)oxy)pyridin-2(1H)-one]
CCNc1cc2c(cn1)c(-c1ccc(CN3CCN(CCOC)CC3)cc1)nn2[C@H]1CC[C@@H](Oc2ccc(=O)n(C)n2)CC1 [Example 82, 6-(((1s,4s)-4-(6-(ethylamino)-3-(4-((4-(2-methoxyethyl)piperazin-1-yl)methyl)phenyl)-1H-pyrazolo[4,3-c]pyridin-1-yl)cyclohexyl)oxy)-2-methylpyridazin-3(2H)-one]
CCNc1cc2c(cn1)c(-c1ccc(CN3CC[C@@H](OC)C3)cc1)nn2[C@H]1CC[C@@H](Oc2ccc(=O)n(C)n2)CC1 [Example 83, 6-(((1S,4s)-4-(6-(ethylamino)-3-(4-(((R)-3-methoxypyrrolidin-1-yl)methyl)phenyl)-1H-pyrazolo[4,3-c]pyridin-1-yl)cyclohexyl)oxy)-2-methylpyridazin-3(2H)-one]
CCNc1cc2c(cn1)c(-c1ccc(CN3CC(C)(O)C3)cc1)nn2[C@H]1CC[C@@H](Oc2ccc(=O)n(C)n2)CC1 [Example 90, 6-(((1s,4s)-4-(6-(ethylamino)-3-(4-((3-hydroxy-3-methylazetidin-1-yl)methyl)phenyl)-1H-pyrazolo[4,3-c]pyridin-1-yl)cyclohexyl)oxy)-2-methylpyridazin-3(2H)-one]
CCNc1cc2c(cn1)c(-c1ccc(CN3CC[C@@H](CO)C3)cc1)nn2[C@H]1CC[C@@H](Oc2ccc(=O)n(C)n2)CC1 [Example 95, 6-(((1S,4s)-4-(6-(ethylamino)-3-(4-(((R)-3-(hydroxymethyl)pyrrolidin-1-yl)methyl)phenyl)-1H-pyrazolo[4,3-c]pyridin-1-yl)cyclohexyl)oxy)-2-methylpyridazin-3(2H)-one]
CCNc1cc2c(cn1)c(-c1ccc(CN3C[C@H](C)[C@@H](O)C3)cc1)nn2[C@H]1CC[C@@H](Oc2ccc(=O)n(C)n2)CC1 [Example 96, 6-(((1S,4s)-4-(6-(ethylamino)-3-(4-(((3R,4S)-3-hydroxy-4-methylpyrrolidin-1-yl)methyl)phenyl)-1H-pyrazolo[4,3-c]pyridin-1-yl)cyclohexyl)oxy)-2-methylpyridazin-3(2H)-one]
CCNc1cc2c(cn1)c(-c1ccc(CN3CC[C@@H](C)C3)cc1)nn2C1CCC(Oc2ccc(=O)n(C)n2)CC1 (stereo partly drawn) [Example 98, 6-(((1S,4s)-4-(6-(ethylamino)-3-(4-(((R)-3-methylpyrrolidin-1-yl)methyl)phenyl)-1H-pyrazolo[4,3-c]pyridin-1-yl)cyclohexyl)oxy)-2-methylpyridazin-3(2H)-one]
CCNc1cc2c(cn1)c(Br)nn2[C@H]1CC[C@@H](Oc2ccc(=O)[nH]c2C(F)(F)F)CC1 [Example 106]
CNc1cc2c(cn1)c(-c1cnn(C)c1)nn2[C@H]1CC[C@@H](Oc2cccc(=O)n2C)CC1 [Example 110, 1-methyl-6-(((1s,4s)-4-(3-(1-methyl-1H-pyrazol-4-yl)-6-(methylamino)-1H-pyrazolo[4,3-c]pyridin-1-yl)cyclohexyl)oxy)pyridin-2(1H)-one]
CNc1cc2c(cn1)c(-c1cnn(C)c1)nn2[C@H]1CC[C@@H](Oc2cccnc2OC)CC1 [Example 142, 1-((1s,4s)-4-((2-methoxypyridin-3-yl)oxy)cyclohexyl)-N-methyl-3-(1-methyl-1H-pyrazol-4-yl)-1H-pyrazolo[4,3-c]pyridin-6-amine]
CNc1cc2c(cn1)c(-c1cnn(C)c1)nn2[C@H]1CC[C@@H](Oc2ccnn2C)CC1 [Example 143, N-methyl-3-(1-methyl-1H-pyrazol-4-yl)-1-((1s,4s)-4-((1-methyl-1H-pyrazol-5-yl)oxy)cyclohexyl)-1H-pyrazolo[4,3-c]pyridin-6-amine]
CNc1cc2c(cn1)c(-c1cnn(C)c1)nn2[C@H]1CC[C@@H](Oc2nccc(C(F)(F)F)n2)CC1 [Example 153, N-methyl-3-(1-methyl-1H-pyrazol-4-yl)-1-((1s,4s)-4-((4-(trifluoromethyl)pyrimidin-2-yl)oxy)cyclohexyl)-1H-pyrazolo[4,3-c]pyridin-6-amine]
CCNc1cc2c(cn1)c(-c1cnn(C(C)(C)C#N)c1)nn2[C@H]1CC[C@@H](Oc2nccnc2C)CC1 [Example 181, 2-(4-(6-(ethylamino)-1-((1s,4s)-4-((3-methylpyrazin-2-yl)oxy)cyclohexyl)-1H-pyrazolo[4,3-c]pyridin-3-yl)-1H-pyrazol-1-yl)-2-methylpropanenitrile]
CCNc1cc2c(cn1)c(-c1cnn(C)c1)nn2[C@H]1CC[C@@H](Oc2cccnc2C)CC1 [Example 185, N-ethyl-3-(1-methyl-1H-pyrazol-4-yl)-1-((1s,4s)-4-((2-methylpyridin-3-yl)oxy)cyclohexyl)-1H-pyrazolo[4,3-c]pyridin-6-amine]
CCNc1cc2c(cn1)c(-c1cnn(C)c1)nn2[C@H]1CC[C@@H](Oc2cccnc2C2CC2)CC1 [Example 186, 1-((1s,4s)-4-((2-cyclopropylpyridin-3-yl)oxy)cyclohexyl)-N-ethyl-3-(1-methyl-1H-pyrazol-4-yl)-1H-pyrazolo[4,3-c]pyridin-6-amine]
CCNc1cc2c(cn1)c(-c1cnn(C)c1)nn2[C@H]1CC[C@@H](Oc2nccnc2C)CC1 [Example 189, N-ethyl-3-(1-methyl-1H-pyrazol-4-yl)-1-((1s,4s)-4-((3-methylpyrazin-2-yl)oxy)cyclohexyl)-1H-pyrazolo[4,3-c]pyridin-6-amine]
CCNc1cc2c(cn1)c(-c1cnn(C)c1)nn2[C@H]1CC[C@@H](Oc2cccnc2C(C)C)CC1 [Example 192, N-ethyl-1-((1s,4s)-4-((2-isopropylpyridin-3-yl)oxy)cyclohexyl)-3-(1-methyl-1H-pyrazol-4-yl)-1H-pyrazolo[4,3-c]pyridin-6-amine]
CCNc1cc2c(cn1)c(-c1cnn(C)c1)nn2[C@H]1CC[C@@H](Oc2cccnc2CC)CC1 [Example 193, N-ethyl-1-((1s,4s)-4-((2-ethylpyridin-3-yl)oxy)cyclohexyl)-3-(1-methyl-1H-pyrazol-4-yl)-1H-pyrazolo[4,3-c]pyridin-6-amine]
CCNc1cc2c(cn1)c(-c1cnn(C)c1)nn2[C@H]1CC[C@@H](Oc2cc(C#N)ccn2)CC1 [Example 200, 2-(((1s,4s)-4-(6-(ethylamino)-3-(1-methyl-1H-pyrazol-4-yl)-1H-pyrazolo[4,3-c]pyridin-1-yl)cyclohexyl)oxy)isonicotinonitrile]
CCNc1cc2c(cn1)c(-c1cnn(C)c1)nn2[C@H]1CC[C@@H](Oc2cnnn2CC)CC1 [Example 225, N-ethyl-1-((1 s,4s)-4-((1-ethyl-1H-1,2,3-triazol-5-yl)oxy)cyclohexyl)-3-(1-methyl-1H-pyrazol-4-yl)-1H-pyrazolo[4,3-c]pyridin-6-amine]
CCNc1cc2c(cn1)c(-c1ccc(CN3CCN(C)CC3)cc1)nn2[C@H]1CC[C@@H](Oc2cn(C)nc2C)CC1 [Example 229, 1-((1s,4s)-4-((1,3-dimethyl-1H-pyrazol-4-yl)oxy)cyclohexyl)-N-ethyl-3-(4-((4-methylpiperazin-1-yl)methyl)phenyl)-1H-pyrazolo[4,3-c]pyridin-6-amine]
CCNc1cc2c(cn1)c(-c1ccc3c(c1)CNC3=O)nn2[C@H]1CC[C@@H](Oc2cn(C)nc2C)CC1 [Example 230, 5-(1-((1s,4s)-4-((1,3-dimethyl-1H-pyrazol-4-yl)oxy)cyclohexyl)-6-(ethylamino)-1H-pyrazolo[4,3-c]pyridin-3-yl)isoindolin-1-one]
CCNc1cc2c(cn1)c(-c1ccc(C(=O)NC3CC3)cc1)nn2[C@H]1CC[C@@H](Oc2cn(C)nc2C)CC1 [Example 231, N-cyclopropyl-4-(1-((1s,4s)-4-((1,3-dimethyl-1H-pyrazol-4-yl)oxy)cyclohexyl)-6-(ethylamino)-1H-pyrazolo[4,3-c]pyridin-3-yl)benzamide]
CCNc1cc2c(cn1)c(-c1ccc(CN3CCN(C)CC3)cc1)nn2[C@H]1CC[C@@H](Oc2cnn(C)c2)CC1 [Example 233, N-ethyl-1-((1s,4s)-4-((1-methyl-1H-pyrazol-4-yl)oxy)cyclohexyl)-3-(4-((4-methylpiperazin-1-yl)methyl)phenyl)-1H-pyrazolo[4,3-c]pyridin-6-amine]
CCNc1cc2c(cn1)c(-c1cnn(C[C@@H](O)CO)c1)nn2[C@H]1CC[C@@H](Oc2ccnc(C(F)(F)F)n2)CC1 [Example 241, (R)-3-(4-(6-(ethylamino)-1-((1s,4S)-4-((2-(trifluoromethyl)pyrimidin-4-yl)oxy)cyclohexyl)-1H-pyrazolo[4,3-c]pyridin-3-yl)-1H-pyrazol-1-yl)propane-1,2-diol]
CCNc1cc2c(cn1)c(-c1cnc(OC)nc1)nn2[C@H]1CC[C@@H](Oc2nccc(C(F)(F)F)c2F)CC1 [Example 269, N-ethyl-1-((1s,4s)-4-((3-fluoro-4-(trifluoromethyl)pyridin-2-yl)oxy)cyclohexyl)-3-(2-methoxypyrimidin-5-yl)-1H-pyrazolo[4,3-c]pyridin-6-amine]
CCNc1cc2c(cn1)c(C1CCCOC1)nn2[C@H]1CC[C@@H](Oc2nccc(C(F)(F)F)c2F)CC1 (stereo partly drawn) [Example 318, N-ethyl-1-((1s,4s)-4-((3-fluoro-4-(trifluoromethyl)pyridin-2-yl)oxy)cyclohexyl)-3-(tetrahydro-2H-pyran-3-yl)-1H-pyrazolo[4,3-c]pyridin-6-amine]
